Experimental data from ChEMBL document CHEMBL1201862, “PubChem BioAssay data set” (2004).
Activity calls are given as the source filed them.

Columns and labels:
Estrogen receptor = target: T1, Estrogen receptor (Homo sapiens, UniProt P03372);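 further: potency for inhibiting coactivator peptide recruitment to the receptor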
T1 sequence (P03372 whole entry): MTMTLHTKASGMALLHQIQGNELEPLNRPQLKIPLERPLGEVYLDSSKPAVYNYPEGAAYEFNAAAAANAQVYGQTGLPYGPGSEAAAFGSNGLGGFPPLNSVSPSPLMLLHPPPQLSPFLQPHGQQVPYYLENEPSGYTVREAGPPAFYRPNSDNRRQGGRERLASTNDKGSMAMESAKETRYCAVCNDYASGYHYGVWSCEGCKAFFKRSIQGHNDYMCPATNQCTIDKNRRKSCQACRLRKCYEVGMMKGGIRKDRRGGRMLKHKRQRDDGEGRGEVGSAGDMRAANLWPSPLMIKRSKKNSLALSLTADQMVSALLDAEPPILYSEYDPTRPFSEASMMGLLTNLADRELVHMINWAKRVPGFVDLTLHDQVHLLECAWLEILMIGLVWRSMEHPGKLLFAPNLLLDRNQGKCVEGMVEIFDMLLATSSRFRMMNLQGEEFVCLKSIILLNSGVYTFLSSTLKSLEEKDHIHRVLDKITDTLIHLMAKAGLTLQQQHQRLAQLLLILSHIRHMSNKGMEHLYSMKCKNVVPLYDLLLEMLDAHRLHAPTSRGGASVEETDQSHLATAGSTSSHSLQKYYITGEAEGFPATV

SUMO-activating enzyme = SUMO-activating enzyme (Homo sapiens, UniProt Q9UBT2); assay: blockers of UBC9-mediated SUMO conjugation – biochemical, AlphaScreen, SUMOylation inhibitor project, confirmation (AID 2018); type: functional
Chain of SUMO-activating enzyme (Q9UBE0 whole entry): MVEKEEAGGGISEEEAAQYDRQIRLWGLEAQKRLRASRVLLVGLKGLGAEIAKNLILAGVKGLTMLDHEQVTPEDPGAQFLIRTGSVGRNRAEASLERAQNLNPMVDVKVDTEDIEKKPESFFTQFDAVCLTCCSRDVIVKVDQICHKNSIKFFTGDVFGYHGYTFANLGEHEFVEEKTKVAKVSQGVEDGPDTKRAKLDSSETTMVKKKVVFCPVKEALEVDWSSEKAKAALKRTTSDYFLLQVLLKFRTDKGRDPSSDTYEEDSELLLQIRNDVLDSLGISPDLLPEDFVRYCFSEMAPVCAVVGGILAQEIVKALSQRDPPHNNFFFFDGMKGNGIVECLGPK
Chain of SUMO-activating enzyme (Q9UBT2 whole entry): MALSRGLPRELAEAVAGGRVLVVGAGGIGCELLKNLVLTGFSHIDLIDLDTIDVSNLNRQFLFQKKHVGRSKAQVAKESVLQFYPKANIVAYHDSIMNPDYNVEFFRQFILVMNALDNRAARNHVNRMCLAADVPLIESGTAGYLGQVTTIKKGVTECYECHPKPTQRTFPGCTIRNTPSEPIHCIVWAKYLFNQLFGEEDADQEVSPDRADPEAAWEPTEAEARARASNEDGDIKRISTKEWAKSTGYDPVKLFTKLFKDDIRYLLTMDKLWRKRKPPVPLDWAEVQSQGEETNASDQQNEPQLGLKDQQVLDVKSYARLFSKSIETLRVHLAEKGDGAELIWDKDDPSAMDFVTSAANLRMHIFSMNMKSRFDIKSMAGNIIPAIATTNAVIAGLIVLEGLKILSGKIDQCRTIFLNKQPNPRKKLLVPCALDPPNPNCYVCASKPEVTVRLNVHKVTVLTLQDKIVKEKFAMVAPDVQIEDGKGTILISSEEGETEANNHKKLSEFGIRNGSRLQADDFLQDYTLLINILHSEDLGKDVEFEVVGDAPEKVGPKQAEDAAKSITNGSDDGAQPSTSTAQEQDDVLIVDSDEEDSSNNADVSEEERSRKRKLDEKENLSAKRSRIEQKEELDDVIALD

[1] = target: T2, Short transient receptor potential channel 4 (Mus musculus, UniProt Q9QUQ5); assay: calcium entry via TRPC4 opening agents – cell-based, HEK293 TRPC4/mu-opioid, Fluo-4 calcium, dose response (AID 434937); type: functional
T2 sequence (Q9QUQ5 whole entry): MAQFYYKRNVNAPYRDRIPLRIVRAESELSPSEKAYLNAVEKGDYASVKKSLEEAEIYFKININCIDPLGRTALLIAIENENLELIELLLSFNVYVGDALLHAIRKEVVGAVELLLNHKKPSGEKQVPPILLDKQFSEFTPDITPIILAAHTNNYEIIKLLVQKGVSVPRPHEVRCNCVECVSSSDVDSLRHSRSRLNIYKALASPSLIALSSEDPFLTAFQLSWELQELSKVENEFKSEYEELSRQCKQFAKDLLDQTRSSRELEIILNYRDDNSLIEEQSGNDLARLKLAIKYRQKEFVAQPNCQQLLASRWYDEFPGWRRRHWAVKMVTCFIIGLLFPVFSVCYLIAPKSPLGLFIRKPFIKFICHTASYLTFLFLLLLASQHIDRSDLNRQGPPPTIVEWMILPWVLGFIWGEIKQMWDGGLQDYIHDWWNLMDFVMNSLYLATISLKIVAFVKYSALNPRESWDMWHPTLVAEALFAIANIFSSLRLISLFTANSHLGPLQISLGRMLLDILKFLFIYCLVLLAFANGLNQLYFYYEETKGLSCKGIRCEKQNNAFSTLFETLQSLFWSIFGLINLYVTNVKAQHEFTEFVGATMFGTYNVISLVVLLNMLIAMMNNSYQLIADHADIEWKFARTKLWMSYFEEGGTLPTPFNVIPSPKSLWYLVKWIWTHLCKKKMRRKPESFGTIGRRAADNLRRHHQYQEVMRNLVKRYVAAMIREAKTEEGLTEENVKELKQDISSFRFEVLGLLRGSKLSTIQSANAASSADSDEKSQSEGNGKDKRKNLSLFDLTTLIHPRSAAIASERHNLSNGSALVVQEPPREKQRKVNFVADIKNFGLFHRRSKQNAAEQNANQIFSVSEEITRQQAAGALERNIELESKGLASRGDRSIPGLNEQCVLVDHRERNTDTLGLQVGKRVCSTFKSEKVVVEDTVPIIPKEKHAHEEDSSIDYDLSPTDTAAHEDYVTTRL

[2] = target: Peroxisome proliferator-activated receptor gamma/Nuclear receptor coactivator 3 (Homo sapiens, UniProt P37231); assay: (§1) TR-FRET dose response biochemical High Throughput Screening assay for agonists of the steroid receptor coactivator 3 (SRC-3) recruitment by the peroxisome proliferator-activated receptor gamma (PPAR gamma): non-selective agonists. [Related pubchem assays: 1301 (Confirmation screen.), 1048 (Primary screen.)]; type: functional
Chain of Peroxisome proliferator-activated receptor gamma/Nuclear receptor coactivator 3 (P37231 whole entry): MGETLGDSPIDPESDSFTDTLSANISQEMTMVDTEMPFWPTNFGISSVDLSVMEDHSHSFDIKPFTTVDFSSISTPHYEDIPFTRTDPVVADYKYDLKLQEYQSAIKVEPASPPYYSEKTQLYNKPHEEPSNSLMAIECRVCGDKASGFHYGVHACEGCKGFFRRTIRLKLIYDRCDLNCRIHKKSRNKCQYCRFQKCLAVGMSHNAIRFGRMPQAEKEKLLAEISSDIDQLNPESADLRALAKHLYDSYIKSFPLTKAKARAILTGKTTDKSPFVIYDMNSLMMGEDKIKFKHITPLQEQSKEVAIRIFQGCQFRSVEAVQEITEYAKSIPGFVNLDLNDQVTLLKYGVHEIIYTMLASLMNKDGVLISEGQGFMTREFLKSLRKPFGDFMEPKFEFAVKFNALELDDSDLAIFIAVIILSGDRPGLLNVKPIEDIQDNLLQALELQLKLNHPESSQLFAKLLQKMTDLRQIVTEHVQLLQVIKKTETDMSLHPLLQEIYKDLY
Chain of Peroxisome proliferator-activated receptor gamma/Nuclear receptor coactivator 3 (Q9Y6Q9 whole entry, further chain): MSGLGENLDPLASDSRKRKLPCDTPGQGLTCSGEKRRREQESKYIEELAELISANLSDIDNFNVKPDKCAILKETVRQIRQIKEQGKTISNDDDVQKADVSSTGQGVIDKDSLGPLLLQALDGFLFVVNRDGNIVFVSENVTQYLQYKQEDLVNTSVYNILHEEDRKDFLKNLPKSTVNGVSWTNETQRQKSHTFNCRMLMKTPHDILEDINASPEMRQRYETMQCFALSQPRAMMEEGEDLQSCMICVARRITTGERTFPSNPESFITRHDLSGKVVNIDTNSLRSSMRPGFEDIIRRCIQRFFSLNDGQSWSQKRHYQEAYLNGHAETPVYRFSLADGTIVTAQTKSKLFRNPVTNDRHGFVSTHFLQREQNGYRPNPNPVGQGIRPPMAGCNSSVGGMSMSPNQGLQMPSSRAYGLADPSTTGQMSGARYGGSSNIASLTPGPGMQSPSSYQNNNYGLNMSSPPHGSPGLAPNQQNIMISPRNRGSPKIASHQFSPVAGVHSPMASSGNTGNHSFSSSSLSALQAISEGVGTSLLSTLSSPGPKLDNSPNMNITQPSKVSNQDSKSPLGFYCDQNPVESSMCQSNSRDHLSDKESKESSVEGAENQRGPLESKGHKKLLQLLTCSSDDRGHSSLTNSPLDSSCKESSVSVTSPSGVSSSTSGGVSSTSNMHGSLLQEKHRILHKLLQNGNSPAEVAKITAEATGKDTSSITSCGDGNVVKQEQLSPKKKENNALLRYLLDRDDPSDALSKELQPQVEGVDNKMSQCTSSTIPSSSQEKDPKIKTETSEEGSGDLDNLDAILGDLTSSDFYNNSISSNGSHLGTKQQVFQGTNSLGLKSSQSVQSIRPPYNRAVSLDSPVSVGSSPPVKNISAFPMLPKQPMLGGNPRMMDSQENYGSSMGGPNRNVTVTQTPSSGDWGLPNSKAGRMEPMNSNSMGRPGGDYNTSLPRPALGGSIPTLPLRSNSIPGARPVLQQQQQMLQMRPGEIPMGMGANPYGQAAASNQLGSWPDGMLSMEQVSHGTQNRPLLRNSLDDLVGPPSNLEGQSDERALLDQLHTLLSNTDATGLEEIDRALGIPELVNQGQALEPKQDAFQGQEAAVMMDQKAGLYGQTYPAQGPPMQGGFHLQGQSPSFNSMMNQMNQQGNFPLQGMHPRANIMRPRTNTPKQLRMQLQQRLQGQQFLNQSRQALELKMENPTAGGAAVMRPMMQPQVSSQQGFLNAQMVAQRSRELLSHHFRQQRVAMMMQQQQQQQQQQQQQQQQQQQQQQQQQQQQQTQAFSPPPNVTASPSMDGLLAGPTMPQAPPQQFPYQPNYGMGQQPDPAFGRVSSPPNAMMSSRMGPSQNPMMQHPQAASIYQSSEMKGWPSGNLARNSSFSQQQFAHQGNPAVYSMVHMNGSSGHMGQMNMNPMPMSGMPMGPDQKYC

[3] = target: Peroxisome proliferator-activated receptor gamma/Nuclear receptor coactivator 1 (Homo sapiens, UniProt P37231); assay: as §1, with “1 (SRC-1)” for “3 (SRC-3)”, “assays (depositor defined):AID1300, AID1808, AID504735, AID631]” for “assays: 1301 (Confirmation screen.), 1048 (Primary screen.)]”; type: protein assay
Chain of Peroxisome proliferator-activated receptor gamma/Nuclear receptor coactivator 1 (P37231 whole entry): as the sequence (P37231 whole entry) above
Chain of Peroxisome proliferator-activated receptor gamma/Nuclear receptor coactivator 1 (Q15788 whole entry, further chain): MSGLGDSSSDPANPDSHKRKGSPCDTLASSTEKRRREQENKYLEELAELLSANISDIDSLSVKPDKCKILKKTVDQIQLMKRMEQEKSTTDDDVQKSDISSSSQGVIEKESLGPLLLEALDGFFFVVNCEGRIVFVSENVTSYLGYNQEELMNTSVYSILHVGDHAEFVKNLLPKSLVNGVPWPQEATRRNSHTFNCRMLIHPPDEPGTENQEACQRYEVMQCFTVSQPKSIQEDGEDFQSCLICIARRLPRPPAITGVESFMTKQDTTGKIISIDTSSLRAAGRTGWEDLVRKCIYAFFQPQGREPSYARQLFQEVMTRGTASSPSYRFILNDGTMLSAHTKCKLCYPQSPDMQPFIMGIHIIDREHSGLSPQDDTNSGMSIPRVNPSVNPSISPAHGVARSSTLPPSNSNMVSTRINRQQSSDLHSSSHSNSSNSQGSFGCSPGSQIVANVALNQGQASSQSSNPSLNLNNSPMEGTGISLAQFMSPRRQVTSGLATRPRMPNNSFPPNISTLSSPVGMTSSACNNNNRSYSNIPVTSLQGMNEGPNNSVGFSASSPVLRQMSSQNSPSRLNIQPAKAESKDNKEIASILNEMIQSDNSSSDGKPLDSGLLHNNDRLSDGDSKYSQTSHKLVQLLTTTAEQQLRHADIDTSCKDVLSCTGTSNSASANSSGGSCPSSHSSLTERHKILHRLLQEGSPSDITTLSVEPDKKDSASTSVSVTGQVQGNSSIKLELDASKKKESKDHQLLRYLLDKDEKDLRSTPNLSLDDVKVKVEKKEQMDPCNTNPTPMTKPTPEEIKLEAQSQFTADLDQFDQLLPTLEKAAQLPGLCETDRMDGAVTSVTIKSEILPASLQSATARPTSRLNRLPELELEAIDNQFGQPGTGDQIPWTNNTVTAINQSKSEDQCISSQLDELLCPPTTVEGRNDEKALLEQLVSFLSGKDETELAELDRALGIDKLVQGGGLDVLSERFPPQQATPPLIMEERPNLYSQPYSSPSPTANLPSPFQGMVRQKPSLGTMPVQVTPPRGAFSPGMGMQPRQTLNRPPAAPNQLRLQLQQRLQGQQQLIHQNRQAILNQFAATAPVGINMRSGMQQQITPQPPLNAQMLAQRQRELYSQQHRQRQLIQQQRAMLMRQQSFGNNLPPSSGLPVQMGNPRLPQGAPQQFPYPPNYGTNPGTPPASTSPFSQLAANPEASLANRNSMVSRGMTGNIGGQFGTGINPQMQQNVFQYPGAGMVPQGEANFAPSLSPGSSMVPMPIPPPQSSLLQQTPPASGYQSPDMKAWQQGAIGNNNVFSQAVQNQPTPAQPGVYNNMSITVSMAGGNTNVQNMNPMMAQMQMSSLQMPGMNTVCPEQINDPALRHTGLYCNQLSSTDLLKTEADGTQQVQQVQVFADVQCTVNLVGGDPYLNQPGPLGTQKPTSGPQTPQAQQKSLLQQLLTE

[4] = target: Peroxisome proliferator-activated receptor gamma/Nuclear receptor coactivator 2 (Homo sapiens, UniProt P37231); assay: TR-FRET dose response biochemical High Throughput Screening assay for agonists of the steroid receptor coactivator 2 (SRC-2) recruitment by the peroxisome proliferator-activated receptor gamma (PPAR gamma): non-selective agonists. [Related pubchem assays: 1297, 1032 ]; type: functional
[5] = viability loss of HPDE-C7K cells – cell-based, fluorescence, HTS, primary screen (AID 431); type: functional; conditions: Homo sapiens
[6] = HPDE-C7 pancreatic duct cell viability loss – fluorescence, HTS (AID 430); type: functional, cell-based; conditions: Homo sapiens

For `CCOc1cccc2cc(-c3nnc(NCc4ccco4)s3)c(=O)oc12`, the IC50 (Estrogen receptor) was 26.8 µM (active) and the IC50 (SUMO-activating enzyme) was 45.7 µM (active).

For `COc1ccc2c(c1O)C13CCN(C)C(C2)C1CCC(=O)C3` (stereo not drawn), the EC50 [1] was 0.168 µM (active).

In the case of `CCn1c2c(c3cc(Br)ccc31)CCC/C2=N\O`, the EC50 [2] is reported as > 79.4 µM (not active), the EC50 [3] is reported as > 79.4 µM (inactive) and the EC50 [4] is reported as 25.7 µM (not active). For the same compound, the EC50 [5] was 10.8 µM (active) and the EC50 [6] was 10.8 µM (active).
